Assay results: patent US20240000860A1, “METHODS FOR TREATING AUTISM SPECTRUM DISORDER” (priority 2020, published 2024)
Marks after values point to notes of the source that are not given here.

Experiments:
Format in all cases: in vivo
mice [1] = experiment: Elevated plus maze (anxiogenic behavior)
Method: (§1) Mice were fed 80% of their total food as non-supplemented food (chow) for 4 days. For the next two weeks, mice were fed 80% of their total food as non-supplemented food and the remaining 20% was supplemented with selected metabolites(s). Mice were fed on food supplemented with various metabolites including 5-dodecacenoate (5D), glycodeoxycholate (GDC), ursodeoxycholate (UDC), or a control food lacking a supplement (CTL). Mouse behavior was tested using an elevated plus maze (FIG. 13), a three-chamber sociability test, and tracking wheel usage. During testing, mice were fed 80% of their total food as non-supplemented food and the remaining 20% was supplemented with the selected metabolites(s).
Anxiogenic behavior was tested by tracking time spent in closed arms of an elevated plus maze. Control mice were fed food lacking a supplement.

CNTNAP2 mice [2] = experiment: Lipidomic profiles and triglyceride levels in brain, plasma, liver and stool
Excerpt: Triglycerides were identified as influential in every tissue measured. Lipids were first aggregated into categories (e.g. triglycerides, phosphocholines), then PCA ordination was applied. […] P-values determined from permanova test between treatments are shown as annotations.
Intensities were normalized using CUDA calibration and were reported as log fold change of median of C57BL/6 wild type controls. P-values were derived from Wilcox rank sum test.

CNTNAP2 mice [3] = experiment: Gut microbiota taxonomic composition in colons with 5D supplementation
Method: Genera under the family Lachnospiraceae and Ruminococcaceae were consistently seen increased in CNTNAP2 mice and decreased with 5D supplementation.
P-values were determined using permanova and beta-dispersion tests. FIGS. 29B-29N show results of differential abundance test of ASVs aggregated at the genus level. […] P-values were determined using Wilcoxon rank sum test, values were reported as fold change of median of C57BL/6 controls.

mice [4] = experiment: Mouse wheel distance traveled
Method: as §1
Lastly, mice fed with food supplemented with various metabolites were given a mouse wheel and distance traveled was tracked.

mice [5] = experiment: Three-chamber sociability test
Method: as §1
Additionally, the effect of supplementation with the metabolites on sociability was measured with a three-chamber sociability test (FIG. 21). This chamber tested for responses to social novelty.

[6] = tested on: gene pathways in frontal cortex of CNTNAP2 mice; experiment: RNA-sequencing and gene set enrichment analysis of frontal cortex; conditions: for normalized enrichment score: 5D vs normal chow
Method: In this example, to further investigate 5D's effect on neuronal function, RNA-sequencing was performed on the frontal cortex region of CNTNAP2 mice supplemented with 5D after 3 weeks.
Bar size depicts enrichment score normalized by gene set size, and color depicts fdr corrected p-value as determined by gene set enrichment analysis. […] (CNTNAP-NormC: n=5, CNTNAP-5D: n=9)

[7] = tested on: gene pathways in mouse brain (prefrontal cortex); experiment: RNA sequencing of prefrontal cortex after supplemented metabolites: differentially expressed gene pathways; conditions: two weeks supplementation
Method: Transcriptomics data (RNA sequencing) was collected from the prefrontal cortex of 12-week old mice after consuming a low, medium, or high dosage of supplemented metabolites for two weeks. RNA sequencing used brain tissue to evaluate possible correlation between changes in relative changes in gene transcription with changes in behavior. The number of differentially expressed gene pathways at significance level of 0.05, 0.1, and 0.15 was determined (Table 1).

mice [8] = experiment: Habituation over three days (distance traveled, time in center, ambulatory time)
Method: as §1
Habituation over was tested with the […] (FIG. 16). […] Significance was tested with an ANOVA test.
Habituation was measured by tracking the amount of time spent in the center of the chamber (FIG. 18).
Active time was also measured as total ambulatory time and center ambulatory time.

[9] = behavioral assay summary, Yes/No
[10] = frontal cortex of CNTNAP2 mice after 3 weeks

## CCCCCCC=CCCCC(=O)O [5D, 5-dodecenoate]
Mice [1]; [9]
  EPM closed arms: Yes
  EPM open arms: No
Mice [1]; vs control mice
  active time in the closed arms of the maze: lower active time in the closed arms of the maze than control mice
  time spent in closed arms of elevated plus maze: spent less time in the closed arms of the maze
CNTNAP2 mice [2]
  lipid profiles in brain and stool: tended to shift brain and stool profiles, though this shift was not statistically significant
  lipid profiles in plasma and liver: significantly shift CNTNAP2 mouse lipid profiles in plasma and liver
CNTNAP2 mice [2]; dietary supplementation
  triglyceride levels in brain, liver, plasma and stool: decreased the levels significantly in each of the tissues
CNTNAP2 mice [3]; CNTNAP2 mice
  Romboutsia ilealis levels: found at very high levels in some CNTNAP2 mice
CNTNAP2 mice [3]; Wilcoxon rank sum test
  ten genera of bacteria increased in CNTNAP2 mice compared to C57BL/6: significantly decreased
CNTNAP2 mice [3]; oral supplementation, CNTNAP2 mice vs C57BL/6 wild types
  taxonomic composition of gut microbiota: shifts the taxonomic composition of CNTNAP2 mice
Mice [4]; after administering metabolites
  night-time activity: night-time activity increased
Mice [4]; treatment average vs Control Average
  Adjusted p value, comparison of average distance traveled: 0.01466*
Mice [5]; [9]
  Sociability: Yes
Mice [5]; mouse, in vivo
  time spent with a new mouse, compared among treatments: spent the most time with a new mouse
Mice [5]; response to social novelty
  time spent with novel mouse ('new') vs known mouse ('old'): spent more time with a novel mouse
[6]; R-MMU-112314 Neurotransmitter receptors and postsynaptic signal transmission
  normalized enrichment score: −2.033
[6]; R-MMU-112315 Transmission across Chemical Synapses
  normalized enrichment score: −1.846
[6]; R-MMU-112316 Neuronal System
  normalized enrichment score: −2.025
[6]; R-MMU-114604 GPVI-mediated activation cascade
  normalized enrichment score: 1.832
[6]; R-MMU-181431 Acetylcholine binding and downstream events
  normalized enrichment score: −2.154
[6]; R-MMU-195721 Signaling by WNT
  normalized enrichment score: −1.416
[6]; R-MMU-198933 Immunoregulatory interactions between a Lymphoid and a non-Lymphoid cell
  normalized enrichment score: 1.706
[6]; R-MMU-202733 Cell surface interactions at the vascular wall
  normalized enrichment score: 1.736
[6]; R-MMU-216083 Integrin cell surface interactions
  normalized enrichment score: 1.99
[6]; R-MMU-397014 Muscle contraction
  normalized enrichment score: −1.646
[6]; R-MMU-418360 Platelet calcium homeostasis
  normalized enrichment score: −2.258
[6]; R-MMU-419037 NCAM1 interactions
  normalized enrichment score: 1.823
[6]; R-MMU-622323 Presynaptic nicotinic acetylcholine receptors
  normalized enrichment score: −2.107
[6]; R-MMU-622327 Postsynaptic nicotinic acetylcholine receptors
  normalized enrichment score: −2.154
[6]; R-MMU-629594 Highly calcium permeable postsynaptic nicotinic acetylcholine receptors
  normalized enrichment score: −2.095
[6]; R-MMU-983168 Antigen processing: Ubiquitination and Proteasome degradation
  normalized enrichment score: −1.55
[6]; R-MMU-1296071 Potassium Channels
  normalized enrichment score: −1.854
[6]; R-MMU-1296072 Voltage gated Potassium channels
  normalized enrichment score: −1.912
[6]; R-MMU-1442490 Collagen degradation
  normalized enrichment score: 2.005
[6]; R-MMU-1474228 Degradation of the extracellular matrix
  normalized enrichment score: 1.968
[6]; R-MMU-1474244 Extracellular matrix organization
  normalized enrichment score: 1.79
[6]; R-MMU-1474290 Collagen formation
  normalized enrichment score: 2.185
[6]; R-MMU-1650814 Collagen biosynthesis and modifying enzymes
  normalized enrichment score: 2.145
[6]; R-MMU-2022090 Assembly of collagen fibrils and other multimeric structures
  normalized enrichment score: 2.261
[6]; R-MMU-2022857 Keratan sulfate degradation
  normalized enrichment score: 1.893
[6]; R-MMU-3928664 Ephrin signaling
  normalized enrichment score: −2.03
[6]; R-MMU-5576891 Cardiac conduction
  normalized enrichment score: −1.669
[6]; R-MMU-5668599 RHO GTPases Activate NADPH Oxidases
  normalized enrichment score: 1.842
[6]; R-MMU-5686938 Regulation of TLR by endogenous ligand
  normalized enrichment score: 1.963
[6]; R-MMU-6794361 Neurexins and neuroligins
  normalized enrichment score: −1.973
[6]; R-MMU-6794362 Protein-protein interactions at synapses
  normalized enrichment score: −2.181
[6]; R-MMU-6798695 Neutrophil degranulation
  normalized enrichment score: 1.588
[6]; R-MMU-6803157 Antimicrobial peptides
  normalized enrichment score: 1.959
[6]; R-MMU-6811436 COPI-independent Golgi-to-ER retrograde traffic
  normalized enrichment score: −1.957
[6]; R-MMU-8878159 Transcriptional regulation by RUNX3
  normalized enrichment score: −1.748
[6]; R-MMU-8948216 Collagen chain trimerization
  normalized enrichment score: 2.098
[6]; R-MMU-8951664 Neddylation
  normalized enrichment score: −1.571
[6]; [10]
  expression of collagen, extracellular matrix, cell structure and interaction pathways: increased the expression of pathways such as collagen formation
  expression of innate immunity pathways: increased expression of pathways that relate to innate immunity
  expression of synapse-dependent pathways: decreased expression of synapse-dependent pathways
  genes significantly modulated (p<0.05): 1438
[7]; significance level 0.05, 12-week old mice
  Differentially Expressed Gene Pathways in Mouse Brain: 0
[7]; significance level 0.1, 12-week old mice
  Differentially Expressed Gene Pathways in Mouse Brain: 216
[7]; significance level 0.15, 12-week old mice
  Differentially Expressed Gene Pathways in Mouse Brain: 235
Mice [8]; [9]
  Habituation exploration: Yes
  Habituation time in center: Yes
Mice [8]; over three days
  habituation: total distance traveled and exploratory activity: lower total distance traveled and exploratory activity over three days
Mice [8]; over time
  center ambulatory time: increase in center ambulatory time over time
  time spent in the center of the chamber: increase in time spent in the center of the chamber over time
